Test results as given in patent US20080064705A1, “Theophylline-based nitophenylpiperazine derivatives for enhancing aortic smooth muscle relaxation” (KAOHSIUNG MEDICAL UNIVERSITY, priority 2006, published 2008).
Counter-ions that a name gives are not always drawn.

Assays:
[1] = system: cAMP levels in RASMCs; assay: Intracellular cAMP levels in RASMCs (radioimmunoassay); format: cell-based, rat
Experimental: (§1) Rat aortic smooth muscles were obtained as sterile surgical specimens. The tissue was washed and cut into 1- to 2-mm pieces and placed into culture dishes with Dulbecco modified Eagle medium (DMEM) containing 20% fetal bovine serum (FBS), 100 U/mL penicillin G, […], and 2 mM glutamine. After these explants attached to the culture dish, usually in 1 to 2 days, DMEM supplemented with 10% FBS, penicillin, streptomycin, and glutamine was added. Rat aortic smooth muscle cells (RASMCs) migrated from the explants in 3-5 days. At this time, the explants were removed, and cells were allowed to achieve confluence. Cells were detached using 0.05% trypsin and 0.02% EDTA at 37° C. for 5 minutes to establish secondary cultures. Cultures were maintained for no more than 4 passages. To exclude contamination by endothelial cells and fibroblasts, the cell homogeneity was further confirmed by the presence of smooth muscle-specific α-actin and α-myosin. Indirect immunofluorescence staining for a variety of antigens was carried out by first plating the cells on chamber slides, fixing the cells in 3.7% formaldehyde in phosphate-buffered saline for 10 minutes, and then permeabilizing the cells with phosphate-buffered saline plus 0.1% Triton X-100. Cells were stained with a mouse monoclonal antibody directed against the amino-terminal 10 amino acids of a-smooth muscle actin and α-myosin (Boehringer Mannheim, Indianapolis, Ind.). All were stained with fluoresceinlabeled goat anti-mouse IgG antibody.
(§2) Intracellular cGMP and cAMP levels in RASMCs were described previously (Wu B N, Lin R J, Lin C Y, et al., Br J Pharmacol., 134, 265-274, 2001). In brief, cells were grown in 24-well plates (10^5 cells/well). At confluence, monolayer cells are washed with phosphate buffer solution (PBS) and then incubated with KMUP-3, KMUP-4, or other PDE inhibitors (10 or 100 μM) for 20 minutes. Incubation is terminated by the addition of 10% trichloroacetic acid (TCA). Cell suspensions are sonicated and then centrifuged at 2500 g for 15 minutes at 4° C. To remove TCA, the supernatants are extracted 3 times with 5 volumes of water-saturated diethyl ether. Then, the supernatants are lyophilized, and cGMP or cAMP of each sample is determined by using commercially available radioimmunoassay kits (Amersham Pharmacia Biotech, Buckinghamshire, England).

[2] = system: eNOS in HUVECs; assay: eNOS protein expression in HUVECs (Western blot, densitometry); format: cell-based, human; conditions: for time at which maximal eNOS protein expression was achieved: 0.1 μM; for expression of eNOS protein: 0.1 μM (also 0.1 mM in source), 18 hours
Experimental: Human umbilical vein endothelial cells (HUVECs, American Type Culture Collection, Rockville, Md.) were cultured in F12 nutrient mixture medium supplemented with 10% FBS, 1.6 mM L-glutamine, […] endothelial cell growth supplement, 100 U/mL penicillin, […], and 10 U/mL heparin. HUVECs of passages 3-5 were used for all experiments.
Endothelial cells were processed, and eNOS protein abundance was determined by Western blot analysis using anti-eNOS antibody (BD Transduction Laboratories, San Diego, Calif.) in a manner that was similar to that described in our previous study.

[3] = target: PDE5 (Homo sapiens, UniProt O76074); parameters: dose or concentration left out as unconfirmed; conditions: n=3
Experimental: (§3) PDE activities were determined by the method of Hidaka and Asano (Hidaka H, Asano T., Biochim Biophys Acta., 429, 485-497, 1976). Washed human platelets were used for both PDE3 and PDE5 analyses, and human U937 cells for PDE4. Purified protein containing PDE3, PDE4, or PDE5 enzyme was resuspended in 50 mM Tris-HCl containing 5 mM MgCl2 (pH 7.5). […] After 20 minutes at 37° C., the samples were heated to 100° C. for 2 minutes. Ophiophagis Hannah snake venom (10 mg/mL, […]) was then added and incubated at 37° C. for 10 minutes to convert the 5′-GMP and 5′-AMP to the uncharged nucleosides guanosine and adenosine, respectively. An ion-exchange resin ([…]) was added to bind all unconverted cGMP or cAMP. After centrifuging, the supernatant was removed for determination of radiolabeled guanosine or adenosine by a liquid scintillation counter.

[4] = target: PDE3 (Homo sapiens, UniProt Q14432); parameters: dose or concentration left out as unconfirmed; conditions: n=3
Experimental: as §3

[5] = system: PDE4; assay: PDE4 enzyme inhibitory activity (method of Hidaka and Asano); format: biochemical, human; parameters: dose or concentration left out as unconfirmed; conditions: n=3
Experimental: as §3

[6] = system: rat aortic rings; assay: Relaxation of precontracted isolated rat aortic rings (isometric tension, organ bath); conditions: for effect on potency of isoproterenol or SNP (concentration-response curve shift): 1 μM pretreatment, endothelium-denuded rings; for effect on potency of isoproterenol or SNP (concentration-response curve shift) / maximal relaxation (Emax) / aortic relaxations in presence of K+ channel blockers: PE 10 μM; for inhibition of relaxation by L-NAME / relaxations in presence of ODQ or SQ 22536: E- rat thoracic aorta; for inhibition of relaxation by L-NAME / vasorelaxant responses after pretreatment with L-NAME, ODQ, SQ 22536 or indomethacin: L-NAME 100 μM; for relaxations in presence of ODQ or SQ 22536 / vasorelaxant responses after pretreatment with L-NAME, ODQ, SQ 22536 or indomethacin: ODQ 1 μM, SQ 22536 100 μM; for maximal relaxation (Emax): endothelium-denuded (E-) condition; for pEC50 of vasorelaxation: precontracted with PE 10 μM, cumulative 1 nM-100 μM; for vasorelaxations with ODQ combined with SQ 22536: endothelium-intact or endothelium-denuded aortic rings; for vasorelaxant responses after pretreatment with L-NAME, ODQ, SQ 22536 or indomethacin: endothelium-intact rat thoracic aorta, indomethacin 10 μM; for relaxation in the presence of 80 mM K+ solution versus PE: endothelium-intact rings precontracted with 80 mM K+, 1 nM-100 μM; for aortic relaxations in presence of K+ channel blockers: TEA 10 mM, glibenclamide 1 μM, 4-AP 100 μM, apamin 1 μM, ChTX 0.1 μM
Experimental: The aortic rings were prepared as follows. 24 Rats (200-300 g) were killed under mild anesthesia with ether, and their aortas were quickly excised.
Isometric tension was recorded with a force displacement transducer (Grass, Model FT03, Quincy, Mass.). The endothelium layer was removed mechanically by inserting the tip of a pair of forceps into the lumen and rolling the tissue back and forth several times on a paper towel moistened with physiological salt solution. At the beginning of each experiment, aortic rings were stretched to a resting tension of 1.5 g and then contracted with phenylephrine (PE, […]), and once the contractions had reached a plateau, the endothelial integrity of the preparations (abbreviated as endothelium-intact in the following) or absence of endothelium (abbreviated as E^− in the following) was verified by adding ACh ([…]) to the superfusate. […] The preparations were then washed and allowed to equilibrate with Krebs solution for 45 minutes before being contracted a second time with PE. When the stable vasoconstriction to PE (10 μM) was reached, concentration-response curves to KMUP-3 and KMUP-4 (1 nM-100 μM) were constructed. Additionally, aortic rings were preconstricted with 80 mM KCl. When the contraction reached a steady state, cumulative concentration-response curves to KMUP-3 and KMUP-4 (1 nM-100 μM) were determined. In this experiment, the high-K^+ solution was prepared by replacing NaCl with KCl (80 mM) in an equimolar amount.

[7] = system: cGMP levels in RASMCs; assay: Intracellular cGMP levels in RASMCs (radioimmunoassay); format: cell-based, rat
Experimental: as §1, §2

[8] = Table 1, 10 μM of test agent, RASMCs, 20 minutes
[9] = Table 2, 10 μM of test agent alone
[10] = Table 2, 10 μM of test agent plus SQ 22536 (100 μM)
[11] = Table 1, 100 μM of test agent, RASMCs, 20 minutes
[12] = Table 2, 100 μM of test agent alone
[13] = Table 2, 100 μM of test agent plus ODQ (10 μM)
[14] = Table 3, SNP (100 μM) plus agent (100 μM)

Sequence of PDE3 (Q14432 whole entry): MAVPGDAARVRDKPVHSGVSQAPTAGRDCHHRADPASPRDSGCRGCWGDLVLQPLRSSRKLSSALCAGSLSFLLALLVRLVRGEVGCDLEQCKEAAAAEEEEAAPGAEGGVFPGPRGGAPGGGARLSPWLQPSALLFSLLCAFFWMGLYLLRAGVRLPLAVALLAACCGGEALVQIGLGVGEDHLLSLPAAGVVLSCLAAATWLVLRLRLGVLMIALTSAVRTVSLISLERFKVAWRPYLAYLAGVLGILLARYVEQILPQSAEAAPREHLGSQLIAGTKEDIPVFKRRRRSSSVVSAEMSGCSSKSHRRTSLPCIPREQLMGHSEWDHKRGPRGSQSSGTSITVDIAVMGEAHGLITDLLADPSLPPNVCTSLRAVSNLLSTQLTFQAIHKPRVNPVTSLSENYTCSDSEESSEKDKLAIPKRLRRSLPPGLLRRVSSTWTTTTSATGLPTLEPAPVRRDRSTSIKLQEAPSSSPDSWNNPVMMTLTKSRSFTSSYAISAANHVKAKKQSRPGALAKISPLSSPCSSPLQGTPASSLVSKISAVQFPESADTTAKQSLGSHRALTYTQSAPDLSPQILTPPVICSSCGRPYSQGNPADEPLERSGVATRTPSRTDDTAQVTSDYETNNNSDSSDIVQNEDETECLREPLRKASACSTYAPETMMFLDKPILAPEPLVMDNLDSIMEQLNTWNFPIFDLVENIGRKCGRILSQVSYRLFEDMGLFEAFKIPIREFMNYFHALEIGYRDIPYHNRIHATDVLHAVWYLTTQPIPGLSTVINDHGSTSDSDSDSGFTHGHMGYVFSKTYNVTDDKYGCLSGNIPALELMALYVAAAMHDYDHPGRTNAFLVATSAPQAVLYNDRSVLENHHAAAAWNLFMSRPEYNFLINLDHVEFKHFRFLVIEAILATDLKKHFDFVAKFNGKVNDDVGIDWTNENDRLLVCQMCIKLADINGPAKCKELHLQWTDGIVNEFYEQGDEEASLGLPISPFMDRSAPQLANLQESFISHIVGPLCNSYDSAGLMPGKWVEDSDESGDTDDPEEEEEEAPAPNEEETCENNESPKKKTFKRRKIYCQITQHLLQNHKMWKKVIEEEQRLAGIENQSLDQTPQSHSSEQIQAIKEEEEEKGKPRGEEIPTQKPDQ

Cn1c(=O)c2c(ncn2CCN2CCN(c3ccc([N+](=O)[O-])cc3)CC2)n(C)c1=O [KMUP-3, 7-[2-[4-(4-nitrobenzene)-piperazinyl]ethyl]-1,3-dimethylxanthine]
cAMP (pmol/10^5 Cells) [1, 8]: 16.18 ± 1.15 pmol/10^5 Cells
cAMP (pmol/10^5 Cells) [1, 9]: 16.28 ± 1.20 pmol/10^5 Cells
cAMP (pmol/10^5 Cells) [1, 10]: 10.30 ± 0.82 pmol/10^5 Cells
time at which maximal eNOS protein expression was achieved [2]: 18 h
expression of eNOS protein [2]: significantly increased
enzyme inhibitory activity for PDE5 [3]: 48±2.6%
enzyme inhibitory activity for PDE3 [4]: 55±3.1%
enzyme inhibitory activity for PDE4 [5]: 48±2.4%
effect on potency of isoproterenol or SNP (concentration-response curve shift) [6]: markedly increased the potency
inhibition of relaxation by L-NAME [6]: do not exhibit any significant inhibition
relaxations in presence of ODQ or SQ 22536 [6]: attenuated
maximal relaxation (Emax) [6]: 73±3.9%
pEC50 of vasorelaxation ([6]; endothelium-denuded aorta (E-)): 5.08±0.03
pEC50 of vasorelaxation ([6]; endothelium-intact aorta): 6.21±0.10
vasorelaxations with ODQ combined with SQ 22536 [6]: additive effect to diminish the vasorelaxations
vasorelaxant responses after pretreatment with L-NAME, ODQ, SQ 22536 or indomethacin [6]: reduced
relaxation in the presence of 80 mM K+ solution versus PE [6]: great reduction of relaxation
aortic relaxations in presence of K+ channel blockers ([6]; endothelium-intact): reduced
cGMP (fmol/10^5 cells) [7, 11]: 64.51 ± 4.68 fmol/10^5 Cells
cGMP (fmol/10^5 cells) [7, 12]: 65.02 ± 4.75 fmol/10^5 cells
cGMP (fmol/10^5 cells) [7, 13]: 34.26 ± 2.89 fmol/10^5 cells
cGMP (fmol/10^5 cells) [7, 14]: 94.57 ± 7.85 fmol/10^5 cells
cGMP (fmol/10^5 cells) ([7]; Table 3, agent alone, 100 μM): 62.50 ± 5.21 fmol/10^5 cells

Cn1c(=O)c2c(ncn2CCN2CCN(c3ccccc3[N+](=O)[O-])CC2)n(C)c1=O [KMUP-4, 7-[2-[4-(2-nitrobenzene)piperazinyl]ethyl]-1,3-dimethylxanthine]
cAMP (pmol/10^5 Cells) [1, 8]: 15.42 ± 1.63 pmol/10^5 Cells
cAMP (pmol/10^5 Cells) [1, 9]: 15.54 ± 1.60 pmol/10^5 Cells
cAMP (pmol/10^5 Cells) [1, 10]: 9.69 ± 0.75 pmol/10^5 Cells
time at which maximal eNOS protein expression was achieved [2]: 18 h
expression of eNOS protein [2]: significantly increased
enzyme inhibitory activity for PDE5 [3]: 15±3.1%
enzyme inhibitory activity for PDE3 [4]: 56±2.8%
enzyme inhibitory activity for PDE4 [5]: 33±1.7%
effect on potency of isoproterenol or SNP (concentration-response curve shift) [6]: markedly increased the potency
inhibition of relaxation by L-NAME [6]: do not exhibit any significant inhibition
relaxations in presence of ODQ or SQ 22536 [6]: attenuated
vasorelaxations at high concentrations in presence of 4-AP and TEA ([6]; concentrations up to 30 and 100 μM, 4-AP and TEA respectively, endothelium-intact): not significantly affected
maximal relaxation (Emax) [6]: 99±4.3%
pEC50 of vasorelaxation ([6]; endothelium-denuded aorta (E-)): 5.94±0.09
pEC50 of vasorelaxation ([6]; endothelium-intact aorta): 6.45±0.12
vasorelaxations with ODQ combined with SQ 22536 [6]: additive effect to diminish the vasorelaxations
vasorelaxant responses after pretreatment with L-NAME, ODQ, SQ 22536 or indomethacin [6]: reduced
relaxation in the presence of 80 mM K+ solution versus PE [6]: great reduction of relaxation
aortic relaxations in presence of K+ channel blockers ([6]; endothelium-intact): reduced
cGMP (fmol/10^5 cells) [7, 11]: 55.28 ± 5.69 fmol/10^5 Cells
cGMP (fmol/10^5 cells) [7, 12]: 55.35 ± 5.60 fmol/10^5 cells
cGMP (fmol/10^5 cells) [7, 13]: 32.10 ± 2.63 fmol/10^5 cells
cGMP (fmol/10^5 cells) [7, 14]: 81.24 ± 6.90 fmol/10^5 cells
cGMP (fmol/10^5 cells) ([7]; Table 3, agent alone, 100 μM): 55.10 ± 5.59 fmol/10^5 cells

O=c1onc2cnc3ccccc3n12 [ODQ, 1H-[1,2,4]oxadiazolo[4,3-a]quinoxalin-1-one, reference compound]
cGMP (fmol/10^5 cells) ([7]; Table 2, ODQ (10 μM) alone): 29.11 ± 2.53 fmol/10^5 cells

Nc1ncnc2c1ncn2C1CCCO1 (stereo not drawn) [SQ 22536, 9-(terahydro-2-furanyl)-9H-purin-6-amine, reference compound]
cAMP (pmol/10^5 Cells) ([1]; Table 2, SQ 22536 (100 μM) alone): 6.41 ± 0.41 pmol/10^5 Cells

CCCc1nn(C)c2c(=O)[nH]c(-c3cc(S(=O)(=O)N4CCN(C)CC4)ccc3OCC)nc12 [Sildenafil, Sildenafil citrate, reference compound]
cGMP (fmol/10^5 cells) [7, 14]: 90.49 ± 8.96 fmol/10^5 cells
cGMP (fmol/10^5 cells) ([7]; Table 3, agent alone, 100 μM): 64.51 ± 4.58 fmol/10^5 cells
